Entries after “also recorded” stand apart in the source; their conditions may differ.
Tested on: fully differentiated human airway epithelium (MUCILAIR™)
Experiment: Acute toxicity on […] (LDH release, TEER, morphology)
Type: cell-based
Protocol: Controlled in vitro evaluation of BisEDT, with respect to potential cytotoxicity on fully differentiated human airway epithelium was carried out. Both solubilized and solid (powder/particulate) forms of BisEDT were evaluated for cytotoxicity by Epithelix, a contract research organization (CRO) specializing in this form of cytotoxicity evaluation utilizing a proprietary, in vitro fully differentiated human airway epithelium test system ([…]™) The […]™ system facilitated evaluation of cytotoxicity through both LDH release (from the culture medium side) and trans-epithelial electrical resistance (TEER) from the apical/air-exposed side as well as pre- and post-exposure microscopic examination for morphological changes (FIG. 13).
The assay system used in this study is Epithelix's proprietary technology […]™ […]™ is a fully differentiated and ready-to-use 3D model of human airway epithelium, constituted with primary human epithelial cells freshly isolated from nasal, tracheal or bronchial biopsies. […]™ (FIG. 24), is not only morphologically and functionally differentiated, but can also be maintained in a homeostatic state for a long period of time (Huang et al., 2009).
[…]™ is composed of basal cells, ciliated cells and mucus cells. The proportion of these various cell types is preserved compared to what one observes in vivo (Huang et al., 2011). Moreover the epithelia are started from de-differentiated cells. The cells undergo a progressive differentiation with time. After 45 days of culture, the epithelia are fully ciliated, secret mucus and are electrically tight (TEER>200 Ω.cm^2). The activity of the main epithelial ionic channels, such as CFTR, EnaC, Na/K ATPase, is preserved and the epithelia is shown to respond in a regulated and vectorial manner to the pro-inflammatory stimulus, TNF-α (Huang et al., 2011). A large panel of cytokines, chemokines and metalloproteinases has been detected in […]™ (e.g. IL-8, IL-6, GM-CSF, MMP-9, GRO-α).
BisEDT (MB-1-B3) was applied on the apical surface of […]™ during 1, 8, 24 and 48 hours (FIG. 13). The effect of 6 concentrations was studied: 0.001, 0.01, 0.1, 1, 10 and 30 μM. […] 30 μl solution at the selected concentration was applied on the apical surface of […]™. The negative control corresponds to the vehicle solution (0 μM) and untreated cultures. The positive control corresponds to 50 μl to 10% Triton X-100 diluted in a buffered saline solution. The study was run in triplicates.
During the study, inserts were maintained in a CO2 incubator (37° C., 5% CO2, 100% humidity). The following end-points were determined: • Tissue integrity monitoring: Trans-Epithelial Electrical Resistance (TEER) measurement (quantitative) at D0, D1 and D2. • Cytotoxicity monitoring: LDH test (quantitative) at D0, D1 and D2. • Morphology: cellular and tissue integrity examined under contrast microscope at D0, D1 and D2.
Three days before the experiment, the following quality controls were performed on each epithelium: • Washing: inserts were washed with 200 μl of […]™ culture medium. Washing removes accumulated mucus on the tissue surface which may interfere with the test. • Trans-Epithelial Electrical Resistance (TEER): TEER was measured to verify that all the selected inserts had tight epithelial barriers and the tissue itself was not disrupted prior to application of the test material. • Tissue morphology: each insert was inspected under a conventional inverted microscope to ensure the quality of the epithelia and determine qualitatively that cilia motion was visible. The presence of mucus was detected by the refractive aspect of the apical surface. Results
Compound BisEDT was applied on the apical surface of […]™. The effect of 5 concentrations after 1, 8,24 and 48 hours exposure was studied: 0.033, 0.33, 3.33, 33.3, 333 μg/cm^2. […]

[1] = solid, 0.033 and 0.33 μg/cm^2, all tested time points
[2] = solution, all tested concentrations and time points

C1C[S][Bi]([S]CC[S][Bi]2[S]CC[S]2)[S]1 [BisEDT, bismuth-1,2-ethanedithiol]
toxic effects (morphology, LDH release, TEER), BisEDT in solution (0.001-30 μM (30 uM = 20.83 ug/mL) apical, 1, 8, 24, 48 hours): no toxic effects were observed; also recorded: no local toxicity | toxic effects (morphology, LDH release, TEER), particulate BisEDT in dextran (lower two concentrations (0.033, 0.33 μg/cm^2), up to 48 hours): no toxic effects were observed | TEER (tissue integrity) (solid, 1 μg/cm^2, 8, 24 and 48H): Loss of tissue integrity | LDH release (cytotoxicity) (solid, 1 μg/cm^2, 8, 24 and 48 h): time- and dose-dependent cytotoxicity | LDH release (cytotoxicity) (solid, 1 μg/cm^2, 1 hour): No significant effect | TEER (tissue integrity) (solid, 1 μg/cm^2, 1 hour): no significant effect | Morphology after exposure (solid, 1 μg/cm^2, 1 hour and 8 hour): no important morphological changes were observed | Morphology after exposure (solid, 1 μg/cm^2, 24 h): epithelial cells on 2 inserts out of 3 were dead | Morphology after exposure (solid, 1 μg/cm^2, 48 h): epithelial cells on all 3 inserts were dead | Morphology after exposure (solid, 3.33 μg/cm^2, 24 and 48 h): Cells were rounded and opaque at the periphery of inserts | Morphology after exposure (solid, 0.033 and 0.33 μg/cm^2): No morphological modifications were observed | LDH release (cytotoxicity) [1]: No significant effect | TEER (tissue integrity) [1]: No significant effect | cytotoxicity (LDH increase, TEER reduction) (solid, 1 and 3.33 μg/cm^2, 24 h and 48 h): induces cytotoxicity | LDH release (cytotoxicity) (solid, 3.3, 33.3 and 333 μg/cm^2, beyond 1 hour): time and dose dependent increase in LDH release; also recorded: time and dose dependent, cytotoxicity | TEER (tissue integrity) (solid, 3.33, 33.3 and 333 μg/cm^2, 8, 24 and 48H exposure): Loss of tissue integrity | toxicity (LDH, TEER, morphology) (solid, 33.3, 333 μg/cm^2): strong toxicity | Morphology after exposure (solid, 33.3 and 333 μg/cm^2, 8, 24 and 48 h): Cells were rounded and opaque on the inserts | TEER (tissue integrity) (solid, all tested doses, 1 hour exposure): no significant effect | Morphology after exposure [2]: No morphology changes were observed | TEER (tissue integrity) [2]: didn't show significant effect | LDH release (cytotoxicity) (solution, all tested concentrations and time-points): not altered

Source: patent publication US11464749B2, “Bismuth-thiol compositions and methods of use” (Microbion Corporation, priority 2018, dated 2022)
